Data reported in ChEMBL document CHEMBL1151180, “Madhucosides A and B, protobassic acid glycosides from Madhuca indica with inhibitory activity on free radical release from phagocytes” (J Nat Prod, 2004).
≈ marks a conversion by molar mass, not a printed value.

How the values were obtained:
[1] = Inhibition of superoxide production in PMNCs at 200 ug/mL by NBT reduction assay; assay type: functional
Neutrophil = assay: Inhibition of hypochlorous production in PMA-stimulated human neutrophils by luminol-enhanced chemiluminescence assay; assay type: functional, cell-based
[2] = Inhibition of superoxide production in PMNCs by NBT reduction assay; assay type: functional

Row | SMILES | inhibition at 200 µg/mL [1] [%] | IC50 (Neutrophil) [µg/mL] | IC50 [2] [µg/mL]
1 | C[C@@H]1O[C@@H](O[C@H]2[C@H](O)[C@@H](O[C@@H]3OC[C@@H](O)[C@H](O)[C@H]3O)[C@H](O[C@@H]3[C@@H](O)[C@H](C)O[C@@H](O[C@H]4[C@H](OC(=O)[C@]56CCC(C)(C)C[C@@H]5C5=CC[C@@H]7[C@@]8(C)C[C@H](O)[C@H](O)[C@@](C)(CO[C@@H]9O[C@H](CO)[C@@H](O)[C@H](O)[C@H]9O[C@@H]9OC[C@](O)(CO)[C@H]9O)[C@@H]8[C@H](O)C[C@@]7(C)[C@]5(C)CC6)OC[C@H](O)[C@@H]4O)[C@@H]3O)O[C@@H]2CO)[C@H](O)[C@H](O)[C@H]1O | 16 | 144 | –
2 | O=C1O[C@H]([C@@H](O)CO)C(O)=C1O [ASCORBIC ACID] | – | – | 14.1 (≈ 80.1 µM)
3 | CC(C)=C[C@H]1C[C@](C)(O)[C@H]2[C@H]3CC[C@@H]4[C@@]5(C)CC[C@H](O[C@@H]6O[C@H](CO)[C@@H](O)[C@H](O[C@@H]7O[C@H](CO)[C@@H](O)[C@H](O)[C@H]7O)[C@H]6O[C@@H]6O[C@@H](CO)[C@H](O)[C@H]6O)C(C)(C)[C@@H]5CC[C@@]4(C)[C@@]34CO[C@@]2(C4)O1 [BACOSIDE A3] | – | 19.8 | –
4 | O=c1c(O)c(-c2ccc(O)c(O)c2)oc2cc(O)cc(O)c12 [QUERCETIN] | – | – | 111 (≈ 367 µM)
